Assay results reported in PMC5218480 (PLoS ONE, 2017).

Test system: MV-4-11 cells
Assay: Gene expression microarray analysis (Affymetrix PrimeView) and GSEA
Assay type: cell-based, human
Set-up: RFU PODN (11730768_x_at) / Fold change /veh PODN (11730768_x_at) / RFU LINC00158 (11744669_a_at) / Fold change /veh LINC00158 (11744669_a_at) / RFU DUSP10 (11751237_a_at) / Fold change /veh DUSP10 (11751237_a_at) / RFU ID3 (11757404_x_at) / Fold change /veh ID3 (11757404_x_at) / RFU PLEKHG5 (11737974_s_at) / Fold change /veh PLEKHG5 (11737974_s_at) / RFU LRRC4B (11730491_at) / Fold change /veh LRRC4B (11730491_at) / RFU GIMAP4 (11747438_a_at) / Fold change /veh GIMAP4 (11747438_a_at) / RFU KRT8 (11758183_x_at) / Fold change /veh KRT8 (11758183_x_at) / RFU CNN1 (11734310_a_at) / Fold change /veh CNN1 (11734310_a_at) / RFU VPS37D (11726825_at) / Fold change /veh VPS37D (11726825_at) / RFU C10orf10 (11716522_x_at) / Fold change /veh C10orf10 (11716522_x_at) / RFU KIR2DL2 /// KIR2DL4 /// KIR2DL5A /// KIR2DL5B /// KIR2DS1 /// KIR2DS2 /// KIR2DS3 /// KIR2DS4 /// KIR3DL3 /// KIR3DL3 /// KIR3DS1 (11738374_at) / Fold change /veh KIR2DL2 /// KIR2DL4 /// KIR2DL5A /// KIR2DL5B /// KIR2DS1 /// KIR2DS2 /// KIR2DS3 /// KIR2DS4 /// KIR3DL3 /// KIR3DL3 /// KIR3DS1 (11738374_at) / RFU C1QL1 (11718748_at) / Fold change /veh C1QL1 (11718748_at) / RFU TMPRSS4 (11747572_a_at) / Fold change /veh TMPRSS4 (11747572_a_at) / RFU HAMP (11756126_x_at) / Fold change /veh HAMP (11756126_x_at) / RFU RNFT2 (11725882_a_at) / Fold change /veh RNFT2 (11725882_a_at) / RFU NR4A2 (11747474_a_at) / Fold change /veh NR4A2 (11747474_a_at) / RFU ABCC12 (11746883_a_at) / Fold change /veh ABCC12 (11746883_a_at) / RFU TMEM136 (11760407_x_at) / Fold change /veh TMEM136 (11760407_x_at) / RFU CLDN22 /// WWC2 (11732394_at) / Fold change /veh CLDN22 /// WWC2 (11732394_at) / RFU HLA-DPB1 (11760878_x_at) / Fold change /veh HLA-DPB1 (11760878_x_at) / RFU SPINT1 (11716480_a_at) / Fold change /veh SPINT1 (11716480_a_at) / RFU GAP43 (11754022_s_at) / Fold change /veh GAP43 (11754022_s_at) / RFU A4GNT (11735810_at) / Fold change /veh A4GNT (11735810_at) / RFU PRB3 (11715151_x_at) / Fold change /veh PRB3 (11715151_x_at) / RFU TUBB4B (11761932_at) / Fold change /veh TUBB4B (11761932_at) / RFU CAPN14 (11732068_a_at) / Fold change /veh CAPN14 (11732068_a_at) / RFU TMCC2 (11721928_a_at) / Fold change /veh TMCC2 (11721928_a_at) / RFU IRGQ (11745062_a_at) / Fold change /veh IRGQ (11745062_a_at) / RFU FAM174B (11720279_a_at) / Fold change /veh FAM174B (11720279_a_at) / RFU TMPRSS4 (11748680_a_at) / Fold change /veh TMPRSS4 (11748680_a_at) / RFU FAM212B (11763350_a_at) / Fold change /veh FAM212B (11763350_a_at) / RFU PLEKHG5 (11743358_a_at) / Fold change /veh PLEKHG5 (11743358_a_at) / RFU ZSCAN30 (11745921_a_at) / Fold change /veh ZSCAN30 (11745921_a_at) / RFU CMKLR1 (11741424_a_at) / Fold change /veh CMKLR1 (11741424_a_at) / RFU LOC101060620 /// MAPK8IP1 (11723275_at) / Fold change /veh LOC101060620 /// MAPK8IP1 (11723275_at) / RFU SPTSSB (11747773_x_at) / Fold change /veh SPTSSB (11747773_x_at) / RFU PRSS12 (11739890_at) / Fold change /veh PRSS12 (11739890_at) / RFU BIN1 (11741810_x_at) / Fold change /veh BIN1 (11741810_x_at) / RFU WNT11 (11732464_a_at) / Fold change /veh WNT11 (11732464_a_at) / RFU C10orf10 (11716521_a_at) / Fold change /veh C10orf10 (11716521_a_at) / RFU C5orf56 (11738089_at) / Fold change /veh C5orf56 (11738089_at) / RFU CYB561 (11721691_x_at) / Fold change /veh CYB561 (11721691_x_at) / RFU ANKRD19P (11752326_a_at) / Fold change /veh ANKRD19P (11752326_a_at) / RFU OR2T12 /// OR2T33 /// OR2T8 (11738714_s_at) / Fold change /veh OR2T12 /// OR2T33 /// OR2T8 (11738714_s_at) / RFU VCAN (11748164_a_at) / Fold change /veh VCAN (11748164_a_at) / RFU JSRP1 (11732532_at) / Fold change /veh JSRP1 (11732532_at) / RFU KRTAP10-11 (11738290_x_at) / Fold change /veh KRTAP10-11 (11738290_x_at) / RFU MYO3A (11730013_a_at) / Fold change /veh MYO3A (11730013_a_at) / RFU EBF3 (11725865_a_at) / Fold change /veh EBF3 (11725865_a_at) / RFU CAMK2N1 (11719241_x_at) / Fold change /veh CAMK2N1 (11719241_x_at) / RFU C5orf56 (11738088_a_at) / Fold change /veh C5orf56 (11738088_a_at) / RFU OLFML3 (11715873_a_at) / Fold change /veh OLFML3 (11715873_a_at) / RFU LOC100653217 /// NTM (11731650_a_at) / Fold change /veh LOC100653217 /// NTM (11731650_a_at) / RFU MAPK11 (11762145_a_at) / Fold change /veh MAPK11 (11762145_a_at) / RFU FIZ1 (11724087_x_at) / Fold change /veh FIZ1 (11724087_x_at) / RFU OASL (11726364_x_at) / Fold change /veh OASL (11726364_x_at) / RFU SOX15 (11748057_x_at) / Fold change /veh SOX15 (11748057_x_at) / RFU CD79A (11719716_a_at) / Fold change /veh CD79A (11719716_a_at) / RFU HIST1H1D (11736915_at) / Fold change /veh HIST1H1D (11736915_at) / RFU CASKIN2 (11723855_a_at) / Fold change /veh CASKIN2 (11723855_a_at) / RFU LOC730098 (11760151_x_at) / Fold change /veh LOC730098 (11760151_x_at) / RFU OR4N2 (11742367_at) / Fold change /veh OR4N2 (11742367_at) / RFU PRRT2 (11749266_a_at) / Fold change /veh PRRT2 (11749266_a_at) / RFU SNX32 (11753110_a_at) / Fold change /veh SNX32 (11753110_a_at) / RFU CDHR5 (11726645_a_at) / Fold change /veh CDHR5 (11726645_a_at) / RFU RCAN1 (11760418_a_at) / Fold change /veh RCAN1 (11760418_a_at) / RFU FAM167A (11723789_a_at) / Fold change /veh FAM167A (11723789_a_at) / RFU FAM26E (11764081_at) / Fold change /veh FAM26E (11764081_at) / RFU ISYNA1 (11749810_s_at) / Fold change /veh ISYNA1 (11749810_s_at) / RFU ACY1 (11761880_at) / Fold change /veh ACY1 (11761880_at) / RFU 11764098_at / Fold change /veh 11764098_at / RFU SAMD14 (11745864_x_at) / Fold change /veh SAMD14 (11745864_x_at) / RFU NPB (11741838_a_at) / Fold change /veh NPB (11741838_a_at) / RFU TMPRSS6 (11731388_a_at) / Fold change /veh TMPRSS6 (11731388_a_at) / RFU KRTAP10-2 (11738614_at) / Fold change /veh KRTAP10-2 (11738614_at) / RFU ARHGAP8 /// PRR5-ARHGAP8 (11727945_x_at) / Fold change /veh ARHGAP8 /// PRR5-ARHGAP8 (11727945_x_at) / RFU KRTAP5-7 /// NADSYN1 (11734609_at) / Fold change /veh KRTAP5-7 /// NADSYN1 (11734609_at) / RFU RASL12 (11751679_a_at) / Fold change /veh RASL12 (11751679_a_at) / RFU CDKN2B (11736163_a_at) / Fold change /veh CDKN2B (11736163_a_at) / RFU PRF1 (11729649_at) / Fold change /veh PRF1 (11729649_at) / RFU, ZNF638 /// ZNF638-IT1 / Fold change vs veh, ZNF638 /// ZNF638-IT1 / RFU, PANK3 / Fold change vs veh, PANK3 / RFU, SH3YL1 / Fold change vs veh, SH3YL1 / RFU, ZEB2 / Fold change vs veh, ZEB2 / RFU, NRIP1 / Fold change vs veh, NRIP1 / RFU, PTTG1IP / Fold change vs veh, PTTG1IP / RFU, CAPN2 / Fold change vs veh, CAPN2 / RFU, MED14 / Fold change vs veh, MED14 / RFU, SNORA58 / Fold change vs veh, SNORA58 / RFU, C1orf63 / Fold change vs veh, C1orf63 / RFU, LRRFIP1 / Fold change vs veh, LRRFIP1 / RFU, NDUFAF7 / Fold change vs veh, NDUFAF7 / RFU, SLC12A2 / Fold change vs veh, SLC12A2 / RFU, IBTK / Fold change vs veh, IBTK / RFU, ESF1 / Fold change vs veh, ESF1 / Fold change vs veh, TMEM50B / RFU, TAOK1 / Fold change vs veh, TAOK1 / RFU, ACBD3 / Fold change vs veh, ACBD3 / RFU, TMA16 / Fold change vs veh, TMA16 / RFU, RWDD3 / Fold change vs veh, RWDD3 / RFU, BCAT1 / Fold change vs veh, BCAT1 / RFU, EDEM3 / Fold change vs veh, EDEM3 / RFU, TMEM33 / Fold change vs veh, TMEM33 / RFU, WDR75 / Fold change vs veh, WDR75 / RFU, AHCTF1 / Fold change vs veh, AHCTF1 / RFU, TFRC / Fold change vs veh, TFRC / RFU, ZDHHC17 / Fold change vs veh, ZDHHC17 / RFU, NOM1 / Fold change vs veh, NOM1 / RFU, ARL8B / Fold change vs veh, ARL8B / RFU, ZBTB11 / Fold change vs veh, ZBTB11 / RFU, TAMM41 / Fold change vs veh, TAMM41 / RFU, KIAA1704 /// LOC100996395 / Fold change vs veh, KIAA1704 /// LOC100996395 / RFU, ING1 / Fold change vs veh, ING1 / RFU, TRMT61B / Fold change vs veh, TRMT61B / RFU, FUBP3 / Fold change vs veh, FUBP3 / RFU, TP53 / Fold change vs veh, TP53 / RFU, TNKS2 / Fold change vs veh, TNKS2 / RFU, ZFP14 / Fold change vs veh, ZFP14 / RFU, ACTR2 / Fold change vs veh, ACTR2 / RFU, PPP3R1 / Fold change vs veh, PPP3R1 / RFU, PIK3R1 / Fold change vs veh, PIK3R1 / RFU, HNRNPA1 / Fold change vs veh, HNRNPA1 / RFU, RNF170 / Fold change vs veh, RNF170 / RFU, ZNF28 / Fold change vs veh, ZNF28 / RFU, RNGTT / Fold change vs veh, RNGTT / RFU, OGT / Fold change vs veh, OGT / RFU, BRD1 / Fold change vs veh, BRD1 / RFU, MARS / Fold change vs veh, MARS / RFU, ZNF655 / Fold change vs veh, ZNF655 / RFU, FAHD1 / Fold change vs veh, FAHD1 / RFU, BDP1 / Fold change vs veh, BDP1 / RFU, LRRCC1 / Fold change vs veh, LRRCC1 / RFU, ARID1A / Fold change vs veh, ARID1A / RFU, ZNF146 / Fold change vs veh, ZNF146 / RFU, ZNF330 / Fold change vs veh, ZNF330 / RFU, GPN3 / Fold change vs veh, GPN3 / RFU, C9orf123 / Fold change vs veh, C9orf123 / RFU, N4BP2L2 / Fold change vs veh, N4BP2L2 / RFU, ARFIP1 / Fold change vs veh, ARFIP1 / RFU, FAM179B / Fold change vs veh, FAM179B / RFU, BCL10 / Fold change vs veh, BCL10 / RFU, UHRF1BP1L / Fold change vs veh, UHRF1BP1L / RFU, BET1 / Fold change vs veh, BET1 / RFU, CNOT2 / Fold change vs veh, CNOT2 / RFU, ZNF268 / Fold change vs veh, ZNF268 / Fold change vs veh, ZNF507 / RFU, DGCR2 / Fold change vs veh, DGCR2 / RFU, WDSUB1 / Fold change vs veh, WDSUB1 / Fold change vs veh, HSP90B1 /// MIR3652 / RFU, ADSS / Fold change vs veh, ADSS / RFU, GK / Fold change vs veh, GK / RFU, ZNF148 / Fold change vs veh, ZNF148 / RFU, TAF9 / Fold change vs veh, TAF9 / RFU, SLC1A5 / Fold change vs veh, SLC1A5 / RFU, SLMO2 / Fold change vs veh, SLMO2 / RFU, ABCC4 / Fold change vs veh, ABCC4 / RFU, LOC101060439 /// RAP1B / Fold change vs veh, LOC101060439 /// RAP1B / RFU, RFX7 / Fold change vs veh, RFX7 / RFU, GTPBP10 / Fold change vs veh, GTPBP10 / RFU, CNEP1R1 / Fold change vs veh, CNEP1R1 / RFU, BIVM-ERCC5 /// ERCC5 / Fold change vs veh, BIVM-ERCC5 /// ERCC5 / RFU, ILF3 / Fold change vs veh, ILF3 / RFU 11762660_at / Fold change /veh 11762660_at / RFU VCAN (11757783_s_at) / Fold change /veh VCAN (11757783_s_at) / RFU DDX43 (11728927_at) / Fold change /veh DDX43 (11728927_at) / RFU KRT8 (11758188_x_at) / Fold change /veh KRT8 (11758188_x_at) / RFU NKD1 (11759106_at) / Fold change /veh NKD1 (11759106_at) / RFU SRD5A1 (11742802_a_at) / Fold change /veh SRD5A1 (11742802_a_at) / RFU TPSAB1 /// TPSB2 (11721975_s_at) / Fold change /veh TPSAB1 /// TPSB2 (11721975_s_at) / RFU GSTM3 (11746129_a_at) / Fold change /veh GSTM3 (11746129_a_at) / RFU IL23R (11737362_x_at) / Fold change /veh IL23R (11737362_x_at) / RFU TMEM51 (11727254_a_at) / Fold change /veh TMEM51 (11727254_a_at) / RFU PIWIL2 (11732686_x_at) / Fold change /veh PIWIL2 (11732686_x_at) / RFU ORM1 (11744905_x_at) / Fold change /veh ORM1 (11744905_x_at) / RFU CCDC152 (11743942_at) / Fold change /veh CCDC152 (11743942_at) / RFU ECM1 (11717891_a_at) / Fold change /veh ECM1 (11717891_a_at) / RFU IL23R (11748794_a_at) / Fold change /veh IL23R (11748794_a_at) / RFU TNFAIP8L3 (11732012_x_at) / Fold change /veh TNFAIP8L3 (11732012_x_at) / RFU MBOAT4 (11741988_at) / Fold change /veh MBOAT4 (11741988_at) / RFU 11764193_at / Fold change /veh 11764193_at / RFU TMEM53 (11763286_at) / Fold change /veh TMEM53 (11763286_at) / RFU MAGEB2 (11727129_at) / Fold change /veh MAGEB2 (11727129_at) / RFU TMEM200A (11744735_a_at) / Fold change /veh TMEM200A (11744735_a_at) / RFU CCDC152 (11751479_a_at) / Fold change /veh CCDC152 (11751479_a_at) / RFU FAM211A (11726209_a_at) / Fold change /veh FAM211A (11726209_a_at) / RFU RGS16 (11746705_a_at) / Fold change /veh RGS16 (11746705_a_at) / RFU VCAN (11755009_s_at) / Fold change /veh VCAN (11755009_s_at) / RFU RHOB (11743442_s_at) / Fold change /veh RHOB (11743442_s_at) / RFU RGS16 (11720943_a_at) / Fold change /veh RGS16 (11720943_a_at) / RFU RGS16 (11720944_at) / Fold change /veh RGS16 (11720944_at) / RFU, VPS4B / Fold change vs veh, VPS4B / RFU, CREB1 / Fold change vs veh, CREB1 / RFU, DNAJC13 / Fold change vs veh, DNAJC13 / RFU, GNAQ / Fold change vs veh, GNAQ / RFU, CDK5R1 / Fold change vs veh, CDK5R1 / RFU, ZRANB3 / Fold change vs veh, ZRANB3 / RFU, CUL4A / Fold change vs veh, CUL4A / RFU, CCNY / Fold change vs veh, CCNY / RFU, UFL1 / Fold change vs veh, UFL1 / RFU, COG3 / Fold change vs veh, COG3 / RFU, DIAPH2 / Fold change vs veh, DIAPH2 / RFU, SKA2 / Fold change vs veh, SKA2 / RFU, AFF3 / Fold change vs veh, AFF3 / RFU, LMF1 / Fold change vs veh, LMF1 / RFU, IPO11 / Fold change vs veh, IPO11 / RFU, DFFB / Fold change vs veh, DFFB / RFU, FOXP1 / Fold change vs veh, FOXP1 / RFU, CARD8 / Fold change vs veh, CARD8 / RFU, STRN3 / Fold change vs veh, STRN3 / RFU, ADK / Fold change vs veh, ADK / RFU, RASSF2 / Fold change vs veh, RASSF2 / RFU, WIPF1 / Fold change vs veh, WIPF1 / RFU, LARP1B / Fold change vs veh, LARP1B / RFU, RASA1 / Fold change vs veh, RASA1 / RFU, RB1 / Fold change vs veh, RB1 / RFU, PPFIA1 / Fold change vs veh, PPFIA1 / RFU, MAT2A / Fold change vs veh, MAT2A / RFU, CCT5 / Fold change vs veh, CCT5 / RFU, WDR92 / Fold change vs veh, WDR92 / RFU, CUX1 / Fold change vs veh, CUX1 / RFU, TTC7A / Fold change vs veh, TTC7A / RFU, TMEM135 / Fold change vs veh, TMEM135 / RFU, DEPTOR / Fold change vs veh, DEPTOR / RFU, CPM / Fold change vs veh, CPM / RFU, DNAJB6 / Fold change vs veh, DNAJB6 / RFU, CACNA2D3 / Fold change vs veh, CACNA2D3 / RFU, DTX4 / Fold change vs veh, DTX4 / RFU, TFCP2 / Fold change vs veh, TFCP2 / RFU, GMCL1 /// GMCL1P1 / Fold change vs veh, GMCL1 /// GMCL1P1 / RFU, AEBP2 / Fold change vs veh, AEBP2 / RFU, SNHG1 /// SNORD22 /// SNORD25 /// SNORD26 /// SNORD27 /// SNORD28 /// SNORD29 /// SNORD31 / Fold change vs veh, SNHG1 /// SNORD22 /// SNORD25 /// SNORD26 /// SNORD27 /// SNORD28 /// SNORD29 /// SNORD31 / Fold change (Aza/veh), C12orf56 (ProbeSet 11735607_a_at) / Fold change (ACY-1035/veh), C12orf56 (ProbeSet 11735607_a_at) / Fold change (Aza/veh), FGFR1OP (ProbeSet 11751329_s_at) / Fold change (ACY-1035/veh), FGFR1OP (ProbeSet 11751329_s_at) / Fold change (Aza/veh), VPS36 (ProbeSet 11739960_a_at) / Fold change (ACY-1035/veh), VPS36 (ProbeSet 11739960_a_at) / RFU SYPL1 (11715823_x_at) / Fold change /veh SYPL1 (11715823_x_at) / RFU IGFBP7 (11715501_s_at) / Fold change /veh IGFBP7 (11715501_s_at) / RFU REEP3 (11722064_at) / Fold change /veh REEP3 (11722064_at) / RFU IGLL1 (11728026_x_at) / Fold change /veh IGLL1 (11728026_x_at): dose or concentration left out as unconfirmed
Details: MV-4-11 cells, 48 hours

In the case of `Nc1ncn([C@@H]2O[C@H](CO)[C@@H](O)[C@H]2O)c(=O)n1` [azacitidine], the “RFU FAM211A (11726209_a_at)” value is reported as 7.10 RFU.
